Test results taken from paper PMC10149936, “Cofilin activation in pancreatic acinar cells plays a pivotal convergent role for mediating CCK-stimulated enzyme secretion and growth” (Frontiers in Physiology, 2023).
Like-named read-outs stand apart in the source and are kept apart here.

Experiments:
[1] = system: p44/42 MAPK in pancreatic acini; test: p44/42 MAPK activation (pT202/Y204 Western blot) in pancreatic acini; format: cell-based; conditions: Rattus norvegicus, Cytochalasin D 10 µM or Paclitaxel 5 µM, 3 h, range
Protocol: Pancreatic acini preparations were obtained by collagenase digestion as previously described ([Bissonnette et al., 1984]; [Sato et al., 1989]; [Ramos-Alvarez and Jensen, 2018]). […] Isolated acini and CCK1-R/Panc-1 cells (M&M 2.2.1) were also preincubated with two SSH1 inhibitors, D3 (25 μM, 1 h) ([Li et al., 2015]) or SE (50 μM, 3 h for acini; 24 h for CCK1-R/Panc-1 cells) ([Lee et al., 2017]). After preincubation, 1 mL aliquots of dispersed acini were incubated at 37°C for 3–15 min with CCK-8 (0.3 nM or 100 nM), for 5–15 min with TPA (1 µM) or without stimulants, used as control. Cells were lysed in lysis buffer (50 mM Tris/HCl pH 7.5, 150 mM NaCl, 1% Triton X-100, 1% deoxycholate, 0.1% sodium azide, 1 mM EGTA, 0.4 mM EDTA, 0.2 mM sodium orthovanadate, 1 mM PMSF, and one protease inhibitor tablet per 10 mL). After sonication, lysates were centrifuged at 10,000×g for 15 min at 4°C and protein concentration was measured using the Bio-Rad protein assay reagent. Finally, cells were processed as below for Western blotting.
Western blotting and immunoprecipitation were performed as described previously ([Ramos-Alvarez and Jensen, 2018]). Whole cell lysates were subjected to SDS-PAGE using 4%–20% Tris–Glycine gels. […] The intensity of the protein bands was measured using GeneTools software from Syngene, which were assessed in the linear detection range. […]

[2] = system: actin-cofilin interaction in fibroblasts; conditions: ref Shoji et al., 2012; cited from earlier work
epithelial cells = conditions: ref Matsubayashi et al., 2004; cited from earlier work
[3] = system: cofilin / PP1 association; test: co-immunoprecipitation of cofilin with PP1 in pancreatic acini; format: cell-based, rat; conditions: CCK-8 100 nM, 3 min
Protocol: For co-immunoprecipitation, 600 μg of protein was incubated with 15 μL of the anti-cofilin antibody (Santa Cruz Biotechnology, Inc. Dallas, TX) and 25 μL of protein A/G agarose beads (Thermo-Fisher Scientific. Waltham, MA) overnight at 4°C under agitation. Samples were washed three times with lysis buffer, re-suspended in 12.5 μL of Sample Buffer, Laemlii 2x concentrate and boiled for 5 min before western blotting.
FIGURE 6 Effect of CCK-8 (100 nM) to alter co-immunoprecipitation of cofilin with total PP2A (A) or PP1 (B). Isolated pancreatic acini were incubated in the absence or presence of CCK-8 (100 nM) for 3 min and then lysed. Equal amounts of protein were co-immunoprecipitated with an anti-cofilin (Santa Cruz, SC-376476) and then subjected to Western blots using anti-PP2A and anti-PP1. Bands were visualized using chemiluminescence and quantified by densitometry. Top: Results of a representative blot of four independent experiments are shown. Bottom: Means ± S.E. of at least 4 independent experiments. Results are expressed as % of basal stimulation of the control group. N.S., No significant. […] Lysates were analyzed using cofilin (pS3), Total cofilin, PP2A (pY307), Total PP2A, PP1(pT320), Total PP1 and tubulin. […]

CC(=O)O[C@H]1C(=O)[C@@]2(C)[C@H]([C@H](OC(=O)c3ccccc3)[C@]3(O)C[C@H](OC(=O)[C@H](O)[C@@H](NC(=O)c4ccccc4)c4ccccc4)C(C)=C1C3(C)C)[C@]1(OC(C)=O)CO[C@@H]1C[C@@H]2O [Paclitaxel]
inhibition at 5 µM ([1]; CCK-8 0.3 and 100 nM 3 min, read-out: inhibition of CCK-8-mediated p42/44 phosphorylation): 31 to 41% | inhibition at 5 µM ([1]; TPA 1 µM 5 min, read-out: inhibition of TPA-mediated p42/44 phosphorylation): 27 to 30%

C=C1[C@@H](C)[C@H]2[C@H](Cc3ccccc3)NC(=O)[C@]23[C@H](OC(C)=O)/C=C/[C@@](C)(O)C(=O)[C@@H](C)C/C=C/[C@H]3[C@@H]1O [Cytochalasin D]
effect on interaction between actin and cofilin [2]: inhibits the interaction between actin and cofilin | effect on cell migration (epithelial cells): completely blocked cell migration

COOH-terminal octapeptide of cholecystokinin [CCK-8]
effect on PP1 co-immunoprecipitation with cofilin [3]: had no effect
